Results as given in patent US9822058B2 (CHDI FOUNDATION, INC., priority 2012, dated 2017).

Target: T1, KMO mouse enzyme (Mus musculus, UniProt Q91WN4)
T1 construct: KMO enzyme prepared at Evotec from mouse liver (4-6 weeks old) via mitochondria isolation; from tissue; host or cells: mouse liver (4-6 weeks old), isolated mitochondria, prepared at Evotec
Assay: KMO mouse enzyme assay: L-Kynurenine hydroxylation to 3-Hydroxy-Kynurenine by LC/MS (protocols substantially similar to Example 33)
Assay type: biochemical
Conditions: compound at 30 µM; KMO enzyme from mouse liver mitochondria; 100 μM L-Kynurenine; 40 min at RT
Experimental: A method of monitoring L-Kynurenine (KYN) hydroxylation to form 3-Hydroxy-Kynurenine (3OH-KYN) by LC/MS is described. Product is quantified by multiple reaction monitoring (MRM method). […]
Using the assay protocols substantially similar to those of Example 33, the following compounds were tested.

T1 sequence (Q91WN4 whole entry): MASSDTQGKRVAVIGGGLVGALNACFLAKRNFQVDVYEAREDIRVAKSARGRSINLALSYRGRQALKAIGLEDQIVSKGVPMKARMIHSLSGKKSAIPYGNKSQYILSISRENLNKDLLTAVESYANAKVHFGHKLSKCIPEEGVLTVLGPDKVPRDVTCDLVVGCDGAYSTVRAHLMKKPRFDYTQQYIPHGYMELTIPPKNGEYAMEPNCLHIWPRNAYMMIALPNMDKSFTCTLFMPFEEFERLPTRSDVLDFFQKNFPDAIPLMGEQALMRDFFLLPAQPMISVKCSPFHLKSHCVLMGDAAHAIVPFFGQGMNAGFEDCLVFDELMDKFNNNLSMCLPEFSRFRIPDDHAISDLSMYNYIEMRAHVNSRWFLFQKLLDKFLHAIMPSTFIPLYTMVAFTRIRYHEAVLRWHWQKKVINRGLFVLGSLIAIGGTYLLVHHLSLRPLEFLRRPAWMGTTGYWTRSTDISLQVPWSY

% Inhibition at 30 µM: 102%
Compound: CC(C)Oc1ccc(C(=O)[C@H]2C[C@@H]2C(=O)[O-])cc1Cl.[Na+] [Sodium (1S,2S)-2-{[3-chloro-4-(propan-2-yloxy)phenyl]carbonyl}cyclopropane-1-carboxylate]
